Assay results as given in the NIST ThermoML archive (doi:10.1016/j.jct.2006.06.005).

Assays:
[1] = xn = mol fraction of the nth substance listed; details: 101 kPa, Liquid
[2] = 101 kPa, Liquid

CN1CCCC1=O [N-methylpyrrolidone] + c1ccccc1
[1]
Details	mass density, 303.15 K [kg/m3]	mass density, 313.15 K [kg/m3]	mass density, 323.15 K [kg/m3]	mass density, 333.15 K [kg/m3]	mass density, 343.15 K [kg/m3]	viscosity, 303.15 K [mPa·s]	viscosity, 313.15 K [mPa·s]	viscosity, 323.15 K [mPa·s]	viscosity, 333.15 K [mPa·s]	viscosity, 343.15 K [mPa·s]
x2 = 0	1023.47	1014.55	1005.66	996.71	987.75	1.554	1.332	1.16	1.022	0.908
x2 = 0.1239	1008.67	999.64	990.6	981.51	972.41	1.357	1.163	1.015	0.895	0.797
x2 = 0.2409	993.24	984.1	974.95	965.76	956.53	1.222	1.049	0.915	0.807	0.712
x2 = 0.3523	978.06	968.78	959.51	950.17	940.78	1.102	0.952	0.834	0.735	0.656
x2 = 0.4584	962.87	953.43	943.96	934.42	924.85	0.991	0.858	0.753	0.665	0.593
x2 = 0.5594	947.6	937.99	928.33	918.6	908.82	0.899	0.779	0.684	0.604	0.539
x2 = 0.6557	931.99	922.17	912.31	902.36	892.35	0.809	0.703	0.62	0.548	0.491
x2 = 0.7476	916.33	906.29	896.21	886.02	875.8	0.729	0.636	0.56	0.498	0.447
x2 = 0.8354	900.43	890.16	879.84	869.42	858.93	0.655	0.573	0.505	0.451	0.405
x2 = 0.9195	884.33	873.83	863.26	852.58	841.81	0.585	0.519	0.458	0.41	0.369

c1ccccc1 [benzene]
[2]
Details	mass density [kg/m3]	viscosity [mPa·s]
303.15 K	868.21	0.561
313.15 K	857.46	0.493
323.15 K	846.65	0.436
333.15 K	835.72	0.388
343.15 K	824.87	0.345

c1ccccc1 [benzene] + CN1CCCC1=O
[1], x1 = 1
Details	mass density [kg/m3]	viscosity [mPa·s]
303.15 K	868.21	0.561
313.15 K	857.46	0.493
323.15 K	846.65	0.436
333.15 K	835.72	0.388
343.15 K	824.87	0.345

C1CCCCC1 [cyclohexane]
[2]
Details	mass density [kg/m3]	viscosity [mPa·s]
303.15 K	769.1	0.821
313.15 K	759.6	0.696
323.15 K	749.98	0.598
333.15 K	740.23	0.52

C1CCCCC1 [cyclohexane] + CN1CCCC1=O
[1], x1 = 1
Details	mass density [kg/m3]	viscosity [mPa·s]
303.15 K	769.1	0.821
313.15 K	759.6	0.696
323.15 K	749.98	0.598
333.15 K	740.23	0.52

Cc1ccccc1 [toluene]
[2]
Details	mass density [kg/m3]	viscosity [mPa·s]
303.15 K	858.32	0.525
313.15 K	848.92	0.47
323.15 K	839.45	0.423
333.15 K	829.93	0.385
343.15 K	820.3	0.35
353.15 K	810.54	0.323

Cc1ccccc1 [toluene] + CN1CCCC1=O
[1], x1 = 1
Details	mass density [kg/m3]	viscosity [mPa·s]
303.15 K	858.32	0.525
313.15 K	848.92	0.47
323.15 K	839.45	0.423
333.15 K	829.93	0.385
343.15 K	820.3	0.35
353.15 K	810.54	0.323
